How the values were obtained:
[1] = test system: ethanol induced gastric ulcers; test: Ethanol induced ulcers; assay type: in vivo, albino rats; conditions: rats, ethanol challenge; for Acidity Total mEg / Gastric content / pH: 4 hours after pylorus ligation
In short: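 Rats in groups of 6, fasted 48 h, given Tween 80 (1%) vehicle, reference drugs, or test compounds at 25 mg/kg; lesions induced 1 h after ethanol challenge. Pylorus ligated under ether; 4 h later gastric contents centrifuged and total acid titrated with 0.01N NaOH.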

Pylorus ligated rats = test: Pylorus ligated ulcers; assay type: in vivo, albino rats; conditions: 4 hours after pylorus ligation
In short: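 Albino rats, fasted 48 h, dosed with test compound (25 mg/kg, or 50, 25, 15, 10 and 5 mg/kg) or ranitidine 50 mg/kg in 1% Tween 80 vehicle. Pylorus ligated under ether 1 h post-dose. Gastric contents collected 4 h later, centrifuged, and total acid titrated with 0.01N NaOH.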

Structure (SMILES): COC(=O)C1OC(Oc2cc3oc(-c4ccccc4)cc(=O)c3cc2OC)C(O)C(O)C1O (stereo not shown) [OA-5, 3,4,5-trihydroxy-6-(6-methoxy-4-oxo-2-phenyl-4-H-chromen-7-yoloxy) tetrahydro-pyran-2-carboxylicacid methyl ester]
- Inhibition % ([1]; 5 mg/kg): 30.01%
- Ulcer index Mean(SE) ([1]; 5 mg/kg): 46.66 (±0.80)
- Acidity Total mEg ([1]; 5 mg/kg): 42.66 (±3.95) m Eg
- Gastric content ([1]; 5 mg/kg): 4.0 (±0.45)
- pH ([1]; 5 mg/kg): 3.5 (±0.40)
- Inhibition % ([1]; 10 mg/kg): 35.00%
- Ulcer index Mean(SE) ([1]; 10 mg/kg): 43.33 (±5.40)
- Acidity Total mEg ([1]; 10 mg/kg): 31.33 (±1.36) m Eg
- Gastric content ([1]; 10 mg/kg): 4.2 (±0.07)
- Inhibition % ([1]; 15 mg/kg): 60.61%
- Ulcer index Mean(SE) ([1]; 15 mg/kg): 26.66 (±4.71)
- Acidity Total mEg ([1]; 15 mg/kg): 29.66 (±1.36) m Eg
- Gastric content ([1]; 15 mg/kg): 4.0 (±0.82)
- pH ([1]; 15 mg/kg): 4.5 (±0.13)
- Inhibition % ([1]; 25 mg/kg): 82.50%
- Ulcer index Mean(SE) ([1]; 25 mg/kg): 11.66 (±4.47)
- Acidity Total mEg ([1]; 25 mg/kg): 12.40 (±2.30) mEg
- Gastric content ([1]; 25 mg/kg): 5.5 (±0.30)
- pH ([1]; 25 mg/kg): 6.81 (±0.26)
- Inhibition % ([1]; 50 mg/kg): 85.00%
- Ulcer index Mean(SE) ([1]; 50 mg/kg): 10.00 (±6.23)
- Acidity Total mEg ([1]; 50 mg/kg): 18.25 (±7.10) mEg
- Gastric content ([1]; 50 mg/kg): 7.4 (±0.72)
- pH ([1]; 50 mg/kg): 4.95 (±0.43)
- Acidity Total mEg (Pylorus ligated rats; 5 mg/kg): 45.50 (±1.25) mEg
- Gastric content (Pylorus ligated rats; 5 mg/kg): 2.06 (±0.28)
- Inhibition % (Pylorus ligated rats; 5 mg/kg): 46.80%
- Ulcer index Mean(SE) (Pylorus ligated rats; 5 mg/kg): 26.66 (±5.48)
- pH (Pylorus ligated rats; 5 mg/kg): 3.25 (±0.17)
- Acidity Total mEg (Pylorus ligated rats; 10 mg/kg): 42.90 (±2.37) mEg
- Gastric content (Pylorus ligated rats; 10 mg/kg): 3.50 (±0.62)
- Inhibition % (Pylorus ligated rats; 10 mg/kg): 59.78%
- Ulcer index Mean(SE) (Pylorus ligated rats; 10 mg/kg): 21.66 (±3.04)
- pH (Pylorus ligated rats; 10 mg/kg): 3.58 (±0.24)
- Acidity Total mEg (Pylorus ligated rats; 15 mg/kg): 30.25 (±0.73) mEg
- Gastric content (Pylorus ligated rats; 15 mg/kg): 3.62 (±0.61)
- Inhibition % (Pylorus ligated rats; 15 mg/kg): 70.07%
- Ulcer index Mean(SE) (Pylorus ligated rats; 15 mg/kg): 15.00 (±3.33)
- pH (Pylorus ligated rats; 15 mg/kg): 4.35 (±0.10)
- Acidity Total mEg (Pylorus ligated rats; 25 mg/kg): 30.18 (±0.50) m Eg
- Gastric content (Pylorus ligated rats; 25 mg/kg): 2.10 (±0.34)
- Inhibition % (Pylorus ligated rats; 25 mg/kg): 75.07%
- Ulcer index Mean(SE) (Pylorus ligated rats; 25 mg/kg): 12.49 (±3.74)
- pH (Pylorus ligated rats; 25 mg/kg): 5.62 (±0.19)
- Acidity Total mEg (Pylorus ligated rats; 50 mg/kg): 32.66 (±0.62) m Eg
- Gastric content (Pylorus ligated rats; 50 mg/kg): 2.50 (±0.19)
- Inhibition % (Pylorus ligated rats; 50 mg/kg): 79.85%
- Ulcer index Mean(SE) (Pylorus ligated rats; 50 mg/kg): 10.10 (±2.04)
- pH (Pylorus ligated rats; 50 mg/kg): 4.62 (±0.10)

From patent publication US7855200B2, “Method for treatment of gastric ulcers and ulcers induced by aspirin” (Council of Scientific and Industrial Research, priority 2006, dated 2010)
